Assay results: patent publication US8952024B2, “Herbicidal pyrimidone derivatives” (E I du Pont de Nemours and Company, priority 2009, dated 2015)

Key:
Assay in all cases: Test D pre-/postemergence plant response
Format in all cases: in vivo
[1] = system: morningglory (pitted morningglory, Ipomoea lacunosa)
Excerpt: (§1) Seeds of plant species selected from bermudagrass (Cynodon dactylon), Surinam grass (Brachiaria decumbens), large crabgrass (Digitaria sanguinalis), green foxtail (Setaria viridis), goosegrass (Eleusine indica), johnsongrass (Sorghum halepense), kochia (Kochia scoparia), morningglory (pitted morningglory, Ipomoea lacunosa), nutsedge (purple nutsedge, Cyperus rotundus), ragweed (common ragweed, Ambrosia elatior), black mustard (Brassica nigra), guineagrass (Panicum maximum), dallisgrass (Paspalum dilatatum), barnyardgrass (Echinochloa crus-galli), sandbur (southern sandbur, Cenchrus echinatus), sowthistle (common sowthistle, Sonchus oleraceous), prickly sida (Sida spinosa), Italian ryegrass (Lolium multiflorum), purslane (common purslane, Portulaca oleracea), signalgrass (broadleaf signalgrass, Brachiaria platyphylla), groundsel (common groundsel, Senecio vulgaris), chickweed (common chickweed, Stellaria media), dayflower (Virginia (VA) dayflower, Commelina virginica), bluegrass (annual bluegrass, Poa annua), naked crabgrass (Digitaria nuda), itchgrass (Rottboellia cochinchinensis), quackgrass (Elytrigia repens), field bindweed (Convolvulus arvensis), spanishneedles (Bidens bipinnata), mallow (common mallow, Malva sylvestris) and Russian thistle (Salsola kali), were planted into a blend of loam soil and sand and treated preemergence with test chemicals formulated in a non-phytotoxic solvent mixture which included a surfactant. At the same time, plants from these weed species were treated with postemergence applications of the test chemicals formulated in the same manner. Plants ranged in height from 2 to 18 cm (1- to 4-leaf stage) for postemergence treatments.
(§2) Treated plants and controls were maintained in a greenhouse for 14 to 21 days, after which time all species were visually evaluated and compared to controls. Plant response ratings, summarized in Table D, are based on a scale of 0 to 100 where 0 is no effect and 100 is complete control. A dash (-) response means no test result.

[2] = system: field bindweed (Convolvulus arvensis)
Excerpt: as §1, §2

kochia (Kochia scoparia) = system: kochia (Kochia scoparia)
Excerpt: as §1, §2

[3] = system: dayflower (Virginia (VA) dayflower, Commelina virginica)
Excerpt: as §1, §2

[4] = system: Surinam grass (Brachiaria decumbens)
Excerpt: as §1, §2

[5] = system: large crabgrass (Digitaria sanguinalis)
Excerpt: as §1, §2

[6] = system: chickweed (common chickweed, Stellaria media); conditions: Postemergence
Excerpt: as §1, §2

[7] = system: sandbur (southern sandbur, Cenchrus echinatus)
Excerpt: as §1, §2

[8] = system: naked crabgrass (Digitaria nuda)
Excerpt: as §1, §2

[9] = system: prickly sida (Sida spinosa)
Excerpt: as §1, §2

[10] = Postemergence, 16 g ai/ha, scale 0 to 100
[11] = Postemergence, 31 g ai/ha, scale 0 to 100
[12] = Postemergence, 125 g ai/ha, scale 0 to 100 (0 no effect, 100 complete control)
[13] = Preemergence, 16 g ai/ha, scale 0 to 100, 0 no effect, 100 complete control
[14] = Preemergence, 31 g ai/ha, scale 0 to 100 (0 no effect, 100 complete control)
[15] = Preemergence, 62 g ai/ha, scale 0 to 100
[16] = Preemergence, 125 g ai/ha, scale 0 to 100
[17] = Postemergence, 62 g ai/ha, scale 0 to 100 (0 no effect, 100 complete control)
[18] = 125 g ai/ha, scale 0 to 100 (0 no effect, 100 complete control)
[19] = Postemergence, 250 g ai/ha, scale 0 to 100 (0 no effect, 100 complete control)
[20] = 250 g ai/ha, scale 0 to 100 (0 no effect, 100 complete control)
[21] = 62 g ai/ha, scale 0 to 100 (0 no effect, 100 complete control)

Compound: Cc1c(F)cccc1-n1c(-c2ccccc2)ncc(C(=O)C2=C(O)CCCC2=O)c1=O [Compound 47, 3-(3-fluoro-2-methylphenyl)-5-[(2-hydroxy-6-oxo-1-cyclohexen-1-yl)carbonyl]-2-phenyl-4(3H)-pyrimidinone]
- Plant response rating, Morningglory [1, 10]: 5
- Plant response rating, Morningglory [1, 11]: 5
- Plant response rating, Morningglory [1, 12]: 50
- Plant response rating, Morningglory [1, 13]: 0
- Plant response rating, Morningglory [1, 14]: 0
- Plant response rating, Morningglory [1, 15]: 20
- Plant response rating, Morningglory [1, 16]: 65
- Plant response rating, Field Bindweed [2, 10]: 35
- Plant response rating, Field Bindweed [2, 11]: 40
- Plant response rating, Field Bindweed [2, 12]: 65
- Plant response rating, Field Bindweed [2, 17]: 50
- Plant response rating, Field Bindweed [2, 13]: 0
- Plant response rating, Field Bindweed [2, 14]: 0
- Plant response rating, Field Bindweed [2, 15]: 0
- Plant response rating, Field Bindweed [2, 16]: 35
- Plant response rating, Kochia (kochia (Kochia scoparia); [10]): 0
- Plant response rating, Kochia (kochia (Kochia scoparia); [11]): 10
- Plant response rating, Kochia (kochia (Kochia scoparia); [12]): 30
- Plant response rating, Kochia (kochia (Kochia scoparia); [17]): 20
- Plant response rating, Kochia (kochia (Kochia scoparia); [13]): 0
- Plant response rating, Kochia (kochia (Kochia scoparia); [14]): 50
- Plant response rating, Kochia (kochia (Kochia scoparia); [15]): 100
- Plant response rating, Kochia (kochia (Kochia scoparia); [16]): 100
- Plant response rating, Dayflower, VA [3, 10]: 10
- Plant response rating, Dayflower, VA [3, 11]: 15
- Plant response rating, Dayflower, VA [3, 12]: 30
- Plant response rating, Dayflower, VA [3, 17]: 20
- Plant response rating, Dayflower, VA [3, 13]: 35
- Plant response rating, Dayflower, VA [3, 14]: 35
- Plant response rating, Dayflower, VA [3, 15]: 50
- Plant response rating, Dayflower, VA [3, 16]: 50
- Plant response rating, Surinam Grass [4, 10]: 35
- Plant response rating, Surinam Grass [4, 11]: 50
- Plant response rating, Surinam Grass [4, 12]: 70
- Plant response rating, Surinam Grass [4, 17]: 60
- Plant response rating, Surinam Grass [4, 13]: 0
- Plant response rating, Crabgrass, Large [5, 10]: 20
- Plant response rating, Crabgrass, Large [5, 11]: 50
- Plant response rating, Crabgrass, Large [5, 12]: 65
- Plant response rating, Crabgrass, Large [5, 17]: 60
- Plant response rating, Crabgrass, Large [5, 13]: 0
- Plant response rating, Crabgrass, Large [5, 14]: 0
- Plant response rating, Crabgrass, Large [5, 15]: 5
- Plant response rating, Crabgrass, Large [5, 16]: 95
- Plant response rating, Chickweed ([6]; 16 g ai/ha, scale 0 to 100): 50
- Plant response rating, Chickweed ([6]; 31 g ai/ha, scale 0 to 100): 65
- Plant response rating, Chickweed [6, 18]: 65
- Plant response rating, Sandbur [7, 10]: 5
- Plant response rating, Sandbur [7, 11]: 5
- Plant response rating, Sandbur [7, 12]: 35
- Plant response rating, Sandbur [7, 17]: 20
- Plant response rating, Sandbur [7, 13]: 0
- Plant response rating, Sandbur [7, 14]: 0
- Plant response rating, Sandbur [7, 16]: 90
- Plant response rating, Crabgrass, Naked [8, 10]: 20
- Plant response rating, Crabgrass, Naked [8, 11]: 35
- Plant response rating, Crabgrass, Naked [8, 12]: 65
- Plant response rating, Crabgrass, Naked [8, 17]: 35
- Plant response rating, Crabgrass, Naked [8, 13]: 0
- Plant response rating, Crabgrass, Naked [8, 14]: 0
- Plant response rating, Crabgrass, Naked [8, 15]: 60
- Plant response rating, Crabgrass, Naked [8, 16]: 98
- Plant response rating, Prickly Sida [9, 10]: 60
- Plant response rating, Prickly Sida [9, 11]: 70
- Plant response rating, Prickly Sida [9, 12]: 90
- Plant response rating, Prickly Sida [9, 17]: 80
- Plant response rating, Prickly Sida [9, 13]: 0
- Plant response rating, Prickly Sida [9, 14]: 50
- Plant response rating, Prickly Sida [9, 15]: 65
- Plant response rating, Prickly Sida [9, 16]: 100

Compound: CCCCn1c(-c2ccccc2)ncc(C(=O)C2=C(O)C3CCC(C3)C2=O)c1=O (stereo not shown) [Compound 240]
- Plant response rating, Morningglory [1, 11]: 65
- Plant response rating, Morningglory [1, 12]: 90
- Plant response rating, Morningglory [1, 19]: 95
- Plant response rating, Morningglory [1, 17]: 80
- Plant response rating, Field Bindweed [2, 11]: 60
- Plant response rating, Field Bindweed [2, 12]: 70
- Plant response rating, Field Bindweed [2, 19]: 70
- Plant response rating, Field Bindweed [2, 17]: 70
- Plant response rating, Kochia (kochia (Kochia scoparia); [11]): 20
- Plant response rating, Kochia (kochia (Kochia scoparia); [12]): 65
- Plant response rating, Kochia (kochia (Kochia scoparia); [19]): 70
- Plant response rating, Kochia (kochia (Kochia scoparia); [17]): 65
- Plant response rating, Dayflower, VA [3, 11]: 35
- Plant response rating, Dayflower, VA [3, 12]: 70
- Plant response rating, Dayflower, VA [3, 19]: 75
- Plant response rating, Dayflower, VA [3, 17]: 60
- Plant response rating, Surinam Grass [4, 11]: 70
- Plant response rating, Surinam Grass [4, 12]: 95
- Plant response rating, Surinam Grass [4, 19]: 95
- Plant response rating, Surinam Grass [4, 17]: 70
- Plant response rating, Crabgrass, Large [5, 11]: 40
- Plant response rating, Crabgrass, Large [5, 12]: 65
- Plant response rating, Crabgrass, Large [5, 19]: 70
- Plant response rating, Crabgrass, Large [5, 17]: 65
- Plant response rating, Chickweed ([6]; 31 g ai/ha, scale 0 to 100): 25
- Plant response rating, Chickweed [6, 18]: 60
- Plant response rating, Chickweed [6, 20]: 70
- Plant response rating, Chickweed [6, 21]: 50
- Plant response rating, Sandbur [7, 11]: 70
- Plant response rating, Sandbur [7, 12]: 90
- Plant response rating, Sandbur [7, 19]: 90
- Plant response rating, Sandbur [7, 17]: 70
- Plant response rating, Prickly Sida [9, 11]: 35
- Plant response rating, Prickly Sida [9, 12]: 75
- Plant response rating, Prickly Sida [9, 19]: 75
- Plant response rating, Prickly Sida [9, 17]: 65

Compound: COCCCn1c(-c2cc(F)cc(F)c2)ncc(C(=O)C2=C(O)C3CCC(C3)C2=O)c1=O (stereo not shown) [Compound 244]
- Plant response rating, Morningglory [1, 11]: 65
- Plant response rating, Morningglory [1, 12]: 75
- Plant response rating, Morningglory [1, 19]: 75
- Plant response rating, Morningglory [1, 17]: 70
- Plant response rating, Field Bindweed [2, 11]: 20
- Plant response rating, Field Bindweed [2, 12]: 65
- Plant response rating, Field Bindweed [2, 19]: 70
- Plant response rating, Field Bindweed [2, 17]: 35
- Plant response rating, Kochia (kochia (Kochia scoparia); [11]): 25
- Plant response rating, Kochia (kochia (Kochia scoparia); [12]): 50
- Plant response rating, Kochia (kochia (Kochia scoparia); [19]): 65
- Plant response rating, Kochia (kochia (Kochia scoparia); [17]): 50
- Plant response rating, Dayflower, VA [3, 11]: 30
- Plant response rating, Dayflower, VA [3, 12]: 65
- Plant response rating, Dayflower, VA [3, 19]: 70
- Plant response rating, Dayflower, VA [3, 17]: 50
- Plant response rating, Surinam Grass [4, 11]: 75
- Plant response rating, Surinam Grass [4, 12]: 80
- Plant response rating, Surinam Grass [4, 19]: 80
- Plant response rating, Surinam Grass [4, 17]: 75
- Plant response rating, Crabgrass, Large [5, 11]: 70
- Plant response rating, Crabgrass, Large [5, 12]: 75
- Plant response rating, Crabgrass, Large [5, 19]: 75
- Plant response rating, Crabgrass, Large [5, 17]: 75
- Plant response rating, Chickweed ([6]; 31 g ai/ha, scale 0 to 100): 15
- Plant response rating, Chickweed [6, 18]: 40
- Plant response rating, Chickweed [6, 20]: 60
- Plant response rating, Chickweed [6, 21]: 20
- Plant response rating, Sandbur [7, 11]: 70
- Plant response rating, Sandbur [7, 12]: 75
- Plant response rating, Sandbur [7, 19]: 75
- Plant response rating, Sandbur [7, 17]: 70
- Plant response rating, Prickly Sida [9, 11]: 25
- Plant response rating, Prickly Sida [9, 12]: 40
- Plant response rating, Prickly Sida [9, 19]: 60
- Plant response rating, Prickly Sida [9, 17]: 35
